The text below walks through data of patent US10941157B2, “Pesticidal compositions and uses thereof” (Gilead Apollo, LLC, priority 2015, dated 2021).

Test [1] has as its system Phakopsora pachyrhizi. In words: Foliar protection test for Asian soybean rust control. It is filed as in vivo. As to conditions: foliar application to soybean (Glycine max AG4832), percent disease area evaluated 14 days later.
In test [2] the test system is Puccinia triticina. In words: Foliar protection test for wheat leaf rust control. It is filed as in vivo. The note with it: foliar application to wheat (Triticum aestivum cv. Winterhawk), evaluated 10 days later.
Test [3] concerns Rhizoctonia solani (Rs). In words: In vitro pathogen growth inhibition assay, Rs (mycelial plugs). It is filed as cell-based. The note with it: Rhizoctonia solani, 48 h, ≥90% growth inhibition; mycelial plugs; 48 hours; vs 2% DMSO control; read-out: Compound Concentration (ppm) sufficient for ≥90% inhibition of Rs. A digest of the protocol: (§1)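 Spores in 17% V8 liquid medium, or 1.5 mm Rs mycelial plugs in ¼ PDB, incubated with compound; final concentration checked by OD600 for precipitation. OD readings at 24 and 48 h, blank-subtracted, plus visual ratings; value is concentration giving ≥90% growth inhibition.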

In test [4] the test system is Fusarium graminearum. It is filed as in vivo. The note with it: spray on flowering Triticum aestivum cv. Samson, inoculated 24 hours after treatment, evaluated 14 days later.
The test system of test [5] is Collectotrichum graminicola (Cg). The test is described as follows: In vitro pathogen growth inhibition assay, Cg. It is filed as cell-based. The note with it: 48 h, ≥90% growth inhibition; 48 hours; vs 2% DMSO control; read-out: Compound Concentration (ppm) sufficient for ≥90% inhibition of Cg. A digest of the protocol:
(§2)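 Value reported is the compound concentration reaching ≥90% growth inhibition, from OD readings at 24 and 48 h after blank subtraction, confirmed visually. Inoculum was spores diluted in 17% V8 medium, except Rs, using 1.5 mm mycelial plugs in ¼ PDB; actual compound concentration corrected via OD600.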

Test [6] relates to Fusarium moniliforme (Fm). In words: In vitro pathogen growth inhibition assay, Fm. It is filed as cell-based. As to conditions: Fusarium verticillioides; ≥90% growth inhibition; 48 hours; vs 2% DMSO control; read-out: Compound Concentration (ppm) sufficient for ≥90% inhibition of Fm. An outline of the steps:
as §2

Test [7] relates to Botrtyis cinerea (Bc). In words: In vitro pathogen growth inhibition assay, Bc. It is filed as cell-based. The note with it: 48 h, ≥90% growth inhibition; 48 hours; vs 2% DMSO control; read-out: Compound Concentration (ppm) sufficient for ≥90% inhibition of Bc. An outline of the steps: as §2
Test [8] deals with Septoria tritici (St). In words: In vitro pathogen growth inhibition assay, St. It is filed as cell-based. The note with it: Zymoseptoria tritici, 48 h, ≥90% growth inhibition; 48 hours; vs 2% DMSO control; read-out: Compound Concentration (ppm) sufficient for ≥90% inhibition of St. An outline of the steps: as §2
Test [9] has as its system Blumeria graminis f. sp. hordei. In words: Foliar protection test for barley powdery mildew control. It is filed as in vivo. The note with it: foliar spray on Hordeum vulgare cv. Perry, inoculated 24 hours after treatment, evaluated 7 days later. A digest of the protocol: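 Protective foliar test: compound atomized onto both leaf surfaces of 6-day-old Hordeum vulgare cv. Perry, followed after 24 h by spore-cloud inoculation from colonized untreated plants. Disease rated on leaves 7 days on, plants held at 20 to 22° C and 70% RH.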

For test [10], the system named is Diplodia maydis (Dm). The test is described as follows: In vitro pathogen growth inhibition assay, Dm. It is filed as cell-based. The note with it: Stenocarpella maydis, 48 h, ≥90% growth inhibition; 48 hours; vs 2% DMSO control; read-out: Compound Concentration (ppm) sufficient for ≥90% inhibition of Dm. A digest of the protocol: as §1
The test system of test [11] is Sphaerotheca fuliginea. The test is described as follows: Foliar protection for cucumber powdery mildew control. It is filed as in vivo. As to conditions: foliar spray on Cucumis sativus cv. Straight Eight, inoculated 24 hours after treatment, evaluated 7 days later. An outline of the steps:
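Protective foliar spray on 10-day-old Straight Eight cucumbers, with S. fuliginea spores dusted from infected stock plants 24 h after treatment. Disease developed at 23–27 °C, 60% RH and a 16 h photoperiod. Leaves were rated for mildew growth after 7 days; test rates 10 ppm or below.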

For test [12], the system named is Fusarium virguliforme (Fv). In words: In vitro pathogen growth inhibition assay, Fv. It is filed as cell-based. As to conditions: ≥90% growth inhibition, 48 hours, vs 2% DMSO control, read-out: Compound Concentration (ppm) sufficient for ≥90% inhibition of Fv. A digest of the protocol:
as §1

Test [13] deals with Mycosphaerella graminicola (synthetic Septoria tritici). In words: Foliar protection test for wheat septoria leaf blotch control. It is filed as in vivo. As to conditions: foliar spray on Triticum aestivum cv. WinterHawk, inoculated 1 hour after treatment, evaluated 16 days later.
The test system of test [14] is Phytophthora capsici (Pc). In words: In vitro pathogen growth inhibition assay, Pc. It is filed as cell-based. As to conditions: 48 h, ≥90% growth inhibition, 48 hours, vs 2% DMSO control, read-out: Compound Concentration (ppm) sufficient for ≥90% inhibition of Pc. A digest of the protocol:
as §1

Converted amounts (≈) assume the structure as drawn. Bounds are passed on as bounds.

`CCNC(=O)[C@@H](C)n1c(=O)c2c(C)c(-n3nccn3)sc2n(C[C@H](OCCC#N)c2cc(F)ccc2OC)c1=O` [Compound I-289, (R)-2-(1-((R)-2-(2-cyanoethoxy)-2-(5-fluoro-2-methoxyphenyl)ethyl)-5-methyl-2,4-dioxo-6-(2H-1,2,3-triazol-2-yl)-1,4-dihydrothieno[2,3-d]pyrimidin-3 (2H)-yl)-N-ethylpropanamide]: the “Asian Soybean Rust Control at a compound concentration of 25 ppm or lower” value (“Asian Soybean Rust Control … of 25 ppm or lower” for short) in test [1] is “AA (≥85% control of Asian soybean rust)”. The “Wheat Leaf Rust Control at a compound concentration of 10 ppm or lower” value (from here on “Wheat Leaf Rust Control … of 10 ppm or lower”) in test [2] is recorded as “AA (≥85% control of wheat leaf rust)”. The IC90 is 0.08 µg/mL (≈ 0.14 µM) in test [3]; 0.08 µg/mL (≈ 0.14 µM) in test [5]; 0.08 µg/mL (≈ 0.14 µM) in test [6]; 2 µg/mL (≈ 3.51 µM) in [7]; over 50 µg/mL in test [8]; 0.4 µg/mL (≈ 0.702 µM) in test [10]. For the same compound, the IC90 in test [12] was 0.4 µg/mL (≈ 0.702 µM); in [14] it was at least 10 µg/mL. In [4], the “Wheat Fusarium Head Blight Control at a compound concentration of 25 ppm or lower” value is on record as “C (from 25 to 49% control of wheat fusarium head blight)”. The “Barley Powdery Mildew Control at a compound concentration of 10 ppm or lower” value in test [9] was “AA (≥85% control of barley powdery mildew)”. Moreover, the “Cucumber Powdery Mildew Control at a compound concentration of 10 ppm or lower” value in [11] was “AA (≥85% control of cucumber powdery mildew)”. Further, the “Septoria Leaf Blotch Control at a compound concentration of 25 ppm or lower” value in test [13] is “AA (≥85% control of wheat septoria leaf blotch)”.

Regarding `CCNC(=O)C(C)(C)n1c(=O)c2c(C)c(-n3nccn3)sc2n(C[C@H](O)c2cc(F)ccc2OC)c1=O` [Compound I-292, (R)—N-ethyl-2-(1-(2-(5-fluoro-2-methoxyphenyl)-2-hydroxyethyl)-5-methyl-2,4-dioxo-6-(2H-1,2,3-triazol-2-yl)-1,4-dihydrothieno[2,3-d]pyrimidin-3 (2H)-yl)-2-methylpropanamide], the “Asian Soybean Rust Control … of 25 ppm or lower” value in test [1] is “B (from 50 to 69% control of Asian soybean rust)”. Further, in test [2], the “Wheat Leaf Rust Control … of 10 ppm or lower” value was “AA (≥85% control of wheat leaf rust)”. The IC90 in test [3] was 0.4 µg/mL (≈ 0.754 µM); in [5] it was 2 µg/mL (≈ 3.77 µM); in [6] it was 0.08 µg/mL (≈ 0.151 µM); in test [7], 2 µg/mL (≈ 3.77 µM); in test [8], over 50 µg/mL; in test [10] it was 2 µg/mL (≈ 3.77 µM). In addition, the IC90 in test [12] is 0.4 µg/mL (≈ 0.754 µM); in [14] it was over 50 µg/mL. Besides, the “Wheat Fusarium Head Blight Control at a compound concentration of 25 ppm or lower” value in test [4] is listed as “C (from 25 to 49% control of wheat fusarium head blight)”. Moreover, in [9], the “Barley Powdery Mildew Control at a compound concentration of 10 ppm or lower” value is “AA (≥85% control of barley powdery mildew)”. For the same compound, the “Cucumber Powdery Mildew Control at a compound concentration of 10 ppm or lower” value in [11] is “AA (≥85% control of cucumber powdery mildew)”. The “Septoria Leaf Blotch Control at a compound concentration of 25 ppm or lower” value in [13] is “B (from 50 to 69% control of wheat septoria leaf blotch)”.

Turning to `COc1ccc(F)cc1[C@H](Cn1c(=O)n(C(C)(C)C(=O)NC2CCC2)c(=O)c2c(C)c(-n3cccn3)sc21)OCCC#N` [Compound I-307, (R)-2-(1-(2-(2-cyanoethoxy)-2-(5-fluoro-2-methoxyphenyl)ethyl)-5-methyl-2,4-dioxo-6-(1H-pyrazol-1-yl)-1,4-dihydrothieno[2,3-d]pyrimidin-3 (2H)-yl)-N-cyclobutyl-2-methylpropanamide], the “Asian Soybean Rust Control … of 25 ppm or lower” value in test [1] is “C (from 25 to 49% control of Asian soybean rust)”. Moreover, the “Wheat Leaf Rust Control … of 10 ppm or lower” value in test [2] was “AA (≥85% control of wheat leaf rust)”. Moreover, the IC90 in [3] was 0.08 µg/mL (≈ 0.131 µM); in test [5], 2 µg/mL (≈ 3.29 µM); in test [6] it was 0.08 µg/mL (≈ 0.131 µM); in test [7], at least 0.4 µg/mL; in test [8] it was over 50 µg/mL; in [10] it was 2 µg/mL (≈ 3.29 µM). In addition, the results for the IC90 in test [12] and in [14] were 0.4 µg/mL (≈ 0.657 µM) and over 50 µg/mL, respectively. The “Wheat Fusarium Head Blight Control at a compound concentration of 25 ppm or lower” value in test [4] is recorded as “C (from 25 to 49% control of wheat fusarium head blight)”. In addition, in test [9], the “Barley Powdery Mildew Control at a compound concentration of 10 ppm or lower” value is listed as “AA (≥85% control of barley powdery mildew)”. Moreover, the “Cucumber Powdery Mildew Control at a compound concentration of 10 ppm or lower” value in test [11] is reported as “AA (≥85% control of cucumber powdery mildew)”. Further, in test [13], the “Septoria Leaf Blotch Control at a compound concentration of 25 ppm or lower” value is given as “B (from 50 to 69% control of wheat septoria leaf blotch)”.

As to `COc1ccc(F)cc1[C@H](Cn1c(=O)n([C@H](C)C(=O)NC2CCC2)c(=O)c2c(C)c(-n3cccn3)sc21)OCCC#N` [Compound I-308, (R)-2-(1-((R)-2-(2-cyanoethoxy)-2-(5-fluoro-2-methoxyphenyl)ethyl)-5-methyl-2,4-dioxo-6-(1H-pyrazol-1-yl)-1,4-dihydrothieno[2,3-d]pyrimidin-3 (2H)-yl)-N-cyclobutylpropanamide], in test [1], the “Asian Soybean Rust Control … of 25 ppm or lower” value was “C (from 25 to 49% control of Asian soybean rust)”. In addition, the “Wheat Leaf Rust Control … of 10 ppm or lower” value in test [2] is “AA (≥85% control of wheat leaf rust)”. Moreover, the IC90 is 0.08 µg/mL (≈ 0.135 µM) in test [3]; 2 µg/mL (≈ 3.36 µM) in [5]; 0.4 µg/mL (≈ 0.673 µM) in [6]; 0.4 µg/mL (≈ 0.673 µM) in [7]; over 50 µg/mL in test [8]; 2 µg/mL (≈ 3.36 µM) in test [10]. The IC90 in test [12] was 2 µg/mL (≈ 3.36 µM); in test [14] it was 50 µg/mL (≈ 84.1 µM). The “Wheat Fusarium Head Blight Control at a compound concentration of 25 ppm or lower” value in test [4] is “C (from 25 to 49% control of wheat fusarium head blight)”. For the same compound, the “Barley Powdery Mildew Control at a compound concentration of 10 ppm or lower” value in test [9] was “AA (≥85% control of barley powdery mildew)”. The “Cucumber Powdery Mildew Control at a compound concentration of 10 ppm or lower” value in test [11] is reported as “AA (≥85% control of cucumber powdery mildew)”. Moreover, the “Septoria Leaf Blotch Control at a compound concentration of 25 ppm or lower” value in test [13] is listed as “AA (≥85% control of wheat septoria leaf blotch)”.

In the case of `COc1ccccc1[C@@H](O)Cn1c(=O)n(C(C)(C)C(=O)NC(C)C)c(=O)c2c(C)c(-n3nccn3)sc21` [Compound I-316, (R)-2-(1-(2-hydroxy-2-(2-methoxyphenyl)ethyl)-5-methyl-2,4-dioxo-6-(2H-1,2,3-triazol-2-yl)-1,4-dihydrothieno[2,3-d]pyrimidin-3 (2H)-yl)-N-isopropyl-2-methylpropanamide], the “Asian Soybean Rust Control … of 25 ppm or lower” value in test [1] is “A (from 70% to 84% control of Asian soybean rust)”. In addition, in test [2], the “Wheat Leaf Rust Control … of 10 ppm or lower” value was “AA (≥85% control of wheat leaf rust)”. For the same compound, the IC90 in test [3] was 0.08 µg/mL (≈ 0.152 µM); in [5], 2 µg/mL (≈ 3.8 µM); in test [6], 0.08 µg/mL (≈ 0.152 µM); in test [7], 0.4 µg/mL (≈ 0.76 µM); in [8], over 50 µg/mL; in [10] it was 2 µg/mL (≈ 3.8 µM). Also, the results for the IC90 in [12] and in [14] were 0.08 µg/mL (≈ 0.152 µM) and at least 10 µg/mL, respectively. For the same compound, the “Wheat Fusarium Head Blight Control at a compound concentration of 25 ppm or lower” value in test [4] is listed as “C (from 25 to 49% control of wheat fusarium head blight)”. The “Barley Powdery Mildew Control at a compound concentration of 10 ppm or lower” value in [9] was “AA (≥85% control of barley powdery mildew)”. Further, the “Cucumber Powdery Mildew Control at a compound concentration of 10 ppm or lower” value in [11] is on record as “AA (≥85% control of cucumber powdery mildew)”. In addition, in test [13], the “Septoria Leaf Blotch Control at a compound concentration of 25 ppm or lower” value is recorded as “A (from 70% to 84% control of wheat septoria leaf blotch)”.
